According to US5488106A:
“Also recorded” adds a separate entry of the source. Where a name gives a salt, the structure may show the parent alone. Read-outs that look alike come from different tables or passages of the source.

Columns and labels:
[1] = target: β-lactamase Tal 3636 CcrA (Bacteroides fragilis, UniProt P25910); assay: biochemical; type: biochemical
Method: Representative compounds of the present invention are also tested to determine inhibition of an isolated metallo enzyme Group 3, the β-lactamase Tal 3636 CcrA. […] In the CI assay, enzyme is added last to a mixture of inhibitor and buffer. In the TDI assay, nitrocefin is added last to a mixture of enzyme and inhibitor that had been incubating for approximately 7 minutes.

metallo-β-lactamase = metallo-β-lactamase (Bacteroides fragilis, UniProt P25910); assay: Long term inactivation of the metallo-β-lactamase, residual activity on nitrocefin; type: biochemical; conditions: for remaining activity at 8 µM: 42 s, 8 μM inhibitor, after 0.7 minutes, read-out: control activity of metallo-β-lactamase remaining
Method: To test for long term inactivation of the metallo-β-lactamase, the inhibitors are mixed with enzyme and incubated overnight. Enzyme activity is tested for at periodic intervals by diluting the enzyme-inhibitor mixture into nitrocefin and comparing the enzymatic activity against that of an enzyme incubated only in assay broth. […].

CcrA (Metallo) = CcrA (Metallo) (Bacteroides fragilis, UniProt P25910); assay: Spectrophotometric inhibition with 10 minute preincubation, nitrocefin substrate; type: biochemical; conditions: for IC50: 10 minute preincubation, 25° C.
PC1 (Penase) = PC1 (Penase) (Staphylococcus aureus, UniProt P00807); assay: as above; type: biochemical
TEM-2 (Bd Spectrum) = TEM-2 (Bd Spectrum) (Escherichia coli, UniProt P62593, Q37K); type: biochemical; conditions: Table III
P99 (Cephase) = P99 (Cephase) (Enterobacter cloacae, UniProt P05364); assay: Spectrophotometric inhibition with 10 minute preincubation, nitrocefin substrate; type: biochemical; conditions: for IC50: 10 minute preincubation, 25° C.
[2] = test system: E. coli strains containing β-lactamases; assay: Microbiological testing with piperacillin, β-lactamase-containing strains (summary in words); conditions: β-lactamase-producing strains
E. coli 300 = assay: MIC of piperacillin, broth serial two-fold dilutions, alone or 1:1 with inhibitor; conditions: piperacillin alone
[3] = test system: E. coli 300 + P99 (cephase); assay: as above; conditions: piperacillin alone
[4] = test system: E. coli 300 + CcrA (metallo-enzyme); assay: as above; conditions: piperacillin alone
E. cloacae + P99 = assay: as above; conditions: piperacillin alone
E. coli + TEM-1 = assay: as above; conditions: piperacillin alone
[5] = CI: enzyme added last, 0.010M HEPES, pH 7.4, nitrocefin 100 μg/ml, read-out: IC50 CI HEPES
[6] = CI: enzyme added last, 0.05M phosphate buffer, pH 7.0, nitrocefin 100 μg/ml, read-out: IC50 CI PHOSPHATE
[7] = TDI: approximately 7 minutes incubation, nitrocefin added last, 0.010M HEPES, pH 7.4, read-out: IC50 TDI HEPES
[8] = TDI: approximately 7 minutes incubation, nitrocefin added last, 0.05M phosphate buffer, pH 7.0, read-out: IC50 TDI PHOSPHATE
[9] = TDI: approximately 7 minutes incubation, nitrocefin added last, 0.010M HEPES, pH 7.4, 7 min, read-out: IC50 TDI HEPES
[10] = TDI: approximately 7 minutes incubation, nitrocefin added last, 0.05M phosphate buffer, pH 7.0, 7 min, read-out: IC50 TDI PHOSPHATE
[11] = 10 minute preincubation, 25° C., read-out: IC50 PC1 (Penase)

For `CCC1=NOC(CC2C(=O)N3C(C(=O)O)C(C)(C)S(=O)(=O)C23)C1` (single isomer, unassigned) [Example 12], the IC50 [1, 5] was > 250 µM, the IC50 [1, 6] was > 250 µM and the IC50 [1, 7] was 77 µM. The IC50 [1, 8] was 120 µM.

`CC1(C)[C@H](C(=O)O)N2C(=O)[C@@H](CC3CC(c4ccsc4)=NO3)[C@H]2S1(=O)=O` (single isomer, unassigned) [Example 14, 4-Thia-1-azabicyclo[3.2.0.]heptane-2-carboxylic acid, 6-[[4,5-dihydro-3-(3-thienyl)-5-isoxazolyl]methyl]-3,3-dimethyl-7-oxo-, 4,4-dioxide, sodium salt, [2S-[2α, 5α, 6β(R* or S*)]]-] showed an IC50 [1, 5] of 48 µM, an IC50 [1, 6] of 33 µM and an IC50 [1, 7] of 3.5 µM. It also gave an IC50 [1, 8] of 9.6 µM.

For `CC1(C)[C@H](C(=O)O)N2C(=O)[C@@H](CC3CC(Br)=NO3)[C@H]2S1(=O)=O` (single isomer, unassigned) [Example 16, 4-Thia-1-azabicyclo[3.2.0]heptane-2-carboxylic acid, 6-[(3-bromo-4,5-dihydro-5-isoxazolyl)methyl]-3,3-dimethyl-7-oxo-, 4,4-dioxide, sodium salt, [2S-[2α,5α,6β(R* or S*)]]-], the IC50 [1, 5] was 18 µM, the IC50 [1, 6] was 48 µM and the IC50 [1, 7] was 2.4 µM. For the same compound, the IC50 [1, 8] was 6 µM.

`Cc1ccc(C2=NOC(C[C@@H]3C(=O)N4[C@@H](C(=O)O)C(C)(C)S(=O)(=O)[C@H]34)C2)cc1` (stereo partly drawn) [Example 4, 4-Thia-1-azabicyclo[3.2.0]heptane-2-carboxylic acid, 6-[[4,5-dihydro-3-(4-methylphenyl)-5-isoxazolyl]-methyl]-3,3-dimethyl-7-oxo-, sodium salt, 4,4-dioxide, [2R-[2α,5α,6β(R*)]]-] gave an IC50 [1, 5] of 9.7 µM, an IC50 [1, 6] of 16 µM and an IC50 [1, 9] of 1.3 µM. The IC50 [1, 10] was 2 µM, the remaining activity at 8 µM (metallo-β-lactamase) was 44% and the metalloenzyme activity recovered (metallo-β-lactamase; after overnight incubation) was 71%. The IC50 (CcrA (Metallo)) was 0.65 µM, the “Inhibition of Group 3 metallo-β-lactamases (in words)” value (CcrA (Metallo); Table III) was “inhibited about equally” and the IC50 (PC1 (Penase); [11]) was 0.72 µM. For the same compound, the “Inhibition of PC1 Group 2a penicillinase (in words)” value (PC1 (Penase); Table III) was “inhibited about equally”, the “Inhibition of 2b broad spectrum β-lactamase (in words)” value (TEM-2 (Bd Spectrum)) was “inhibited about equally” and the IC50 (P99 (Cephase)) was 0.0028 µM. The “Inhibition of P99 Group 1 cephalosporinase (in words)” value (P99 (Cephase); Table III) was “very potent inhibitor of the P99 Group 1 cephalosporinase” and the “Microbiological activity / effect on MICs of piperacillin (in words)” value (“Microbiological activity / effect” below) [2] was “lowers the MICs for all the β-lactamases-producing strains; also recorded: more potent in vitro activity against the P99 cephase than the product of Example 10”.

Compound `Cc1ccc(C2=NOC(C[C@@H]3C(=O)N4[C@@H](C(=O)O)C(C)(C)S(=O)(=O)[C@H]34)C2)cc1` (stereo partly drawn) [Example 5, 4-Thia-1-azabicyclo[3.2.0.]heptane-2-carboxylic acid, 6-[[4,5-dihydro-3-(4-methylphenyl)-5-isoxazolyl]methyl]-3,3-dimethyl-7-oxo-, sodium salt, 4,4-dioxide, [2R-[2α,5α,6β(S*)]]-] has an IC50 [1, 5] of 27 µM, an IC50 [1, 6] of 68 µM and an IC50 [1, 9] of 2 µM. The IC50 [1, 10] was 6.9 µM.

`CC(=O)OC(C1CC(c2ccc(C)cc2)=NO1)[C@@H]1C(=O)N2[C@@H](C(=O)O)C(C)(C)S(=O)(=O)[C@H]12` (stereo partly drawn) [Example 10, 4-Thia-1-azabicyclo[3.2,0]heptane-2-carboxylic acid, 6-[(acetyloxy)[4,5-dihydro-3-(4-methylphenyl)-5-isoxazolyl]methyl]-3,3-dimethyl-7-oxo-, sodium salt, 4,4-dioxide, [2S-(2α, 5α, 6β)]-] showed an IC50 [1, 5] of 100 µM, an IC50 [1, 6] of 210 µM and an IC50 [1, 7] of 3.9 µM. For the same compound, the IC50 [1, 8] was 3.2 µM, the remaining activity at 8 µM (metallo-β-lactamase) was 45% and the enzyme activity lost (metallo-β-lactamase; after overnight incubation) was > 99%. The IC50 (CcrA (Metallo)) was 16 µM, the IC50 (PC1 (Penase); [11]) was 8 µM and the IC50 (P99 (Cephase)) was 2.4 µM. For the same compound, the “Microbiological activity / effect” value [2] was “lowers the MICs of piperacillin for all the E. coli strains containing β-lactamases”.

`CCN1CCN(C(=O)N[C@@H](C(=O)N[C@@H]2C(=O)N3[C@@H]2SC(C)(C)[C@@H]3C(=O)O)c2ccccc2)C(=O)C1=O` [Piperacillin, piperacillin] was tested, and the “Minimum Inhibitory Concentration of Piperacillin” value (shortened to “Minimum Inhibitory Concentration”) (E. coli 300) was 1 µg/mL, the “Minimum Inhibitory Concentration” value [3] was 16 µg/mL and the “Minimum Inhibitory Concentration” value [4] was 4 µg/mL. For the same compound, the “Minimum Inhibitory Concentration” value (E. cloacae + P99) was 128 µg/mL, the “Minimum Inhibitory Concentration” value (E. coli + TEM-1) was > 1024 µg/mL and the “Microbiological activity / effect” value [2] was “decreased microbiological activity (increased MICs) in E. coli strains that had β-lactamases introduced into them”.

For `CC1(C)[C@H](C(=O)O)N2C(=O)C[C@H]2S1(=O)=O` [Sulbactam, sulbactam, reference compound], the IC50 (PC1 (Penase)) was 0.08 µM.

Compound `C[C@]1(Cn2ccnn2)[C@H](C(=O)O)N2C(=O)C[C@H]2S1(=O)=O` [Tazobactam, tazobactam, reference compound] has an IC50 (PC1 (Penase)) of 0.032 µM.
